Drawing on patent US20240383904A1, “HETEROCYCLIC COMPOUNDS” (Hoffmann-La Roche Inc., priority 2021, published 2024), this text covers IC50 for 22 compounds.

This test deals with T1, MAGL (Homo sapiens, UniProt Q99685).
T1 sequence (Q99685 1-303): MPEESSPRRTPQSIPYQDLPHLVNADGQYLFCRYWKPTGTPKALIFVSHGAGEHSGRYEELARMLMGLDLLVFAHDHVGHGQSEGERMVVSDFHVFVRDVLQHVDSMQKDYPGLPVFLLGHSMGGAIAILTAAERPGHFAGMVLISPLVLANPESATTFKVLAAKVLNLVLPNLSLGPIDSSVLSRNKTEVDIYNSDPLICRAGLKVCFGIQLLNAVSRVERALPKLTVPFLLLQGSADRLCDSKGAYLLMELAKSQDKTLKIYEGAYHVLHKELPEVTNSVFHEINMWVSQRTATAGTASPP
As to the kind of experiment: 2-AG assay: MAGL inhibitory activity by hydrolysis of 2-arachidonoylglycerol to arachidonic acid, followed by mass spectrometry. It counts as biochemical. As to conditions: 15 min preincubation, 30 min reaction at RT, 8 μM 2-arachidonoylglycerol.

Broadly, the IC50 is the midpoint of a concentration-inhibition curve. A higher IC50 goes with a need for much substance.

In the case of `O=C1COCC2(CN(C(=O)N3CC4(CC(NS(=O)(=O)c5cccc(C(F)(F)F)c5)C4)C3)C2)N1` [Example 208, N-[2-(6-oxo-8-oxa-2,5-diazaspiro[3.5]nonane-2-carbonyl)-2-azaspiro[3.3]heptan-6-yl]-3-(trifluoromethyl)benzene-sulfonamide], the IC50 turned out to be 67.1 nM.
With `N#Cc1cc(C(F)(F)F)ncc1O[C@H]1CCC2(C1)CN(C(=O)N1CC3(COC(=O)N3)C1)C2` [Example 209, 5-[[(6S)-2-(6-oxo-7-oxa-2,5-diazaspiro[3.4]octane-2-carbonyl)-2-azaspiro[3.4]octan-6-yl]oxy]-2-(trifluoromethyl)pyridine-4-carbonitrile], the IC50 worked out at 6.28 nM.
Regarding `N#Cc1cc(C(F)(F)F)ncc1CC1CCC2(C1)CN(C(=O)N1CC3(COC(=O)N3)C1)C2` (stereo not shown) [Example 210, 5-[[2-(6-oxo-7-oxa-2,5-diazaspiro[3.4]octane-2-carbonyl)-2-azaspiro[3.4]octan-6-yl]methyl]-2-(trifluoromethyl)pyridine-4-carbonitrile], the IC50 amounted to 0.84 nM.
In the case of `N#Cc1cc(C(F)(F)F)ncc1CC1CC2(C1)CN(C(=O)N1CC3(COC(=O)N3)C1)C2` [Example 211, 5-[[2-(6-oxo-7-oxa-2,5-diazaspiro[3.4]octane-2-carbonyl)-2-azaspiro[3.3]heptan-6-yl]methyl]-2-(trifluoromethyl)pyridine-4-carbonitrile], half-maximal inhibition (IC50) required 0.39 nM.
Take `N#Cc1cc(C(F)(F)F)ncc1C[C@H]1CCC2(C1)CN(C(=O)N1CC3(COC(=O)N3)C1)C2` [Example 212, 5-[[(6S)-2-(6-oxo-7-oxa-2,5-diazaspiro[3.4]octane-2-carbonyl)-2-azaspiro[3.4]octan-6-yl]methyl]-2-(trifluoromethyl)pyridine-4-carbonitrile]: the IC50 turned out to be 0.46 nM.
The result for `N#Cc1cc(C(F)(F)F)ncc1C[C@@H]1CCC2(C1)CN(C(=O)N1CC3(COC(=O)N3)C1)C2` [Example 213, 5-[[(6R)-2-(6-oxo-7-oxa-2,5-diazaspiro[3.4]octane-2-carbonyl)-2-azaspiro[3.4]octan-6-yl]methyl]-2-(trifluoromethyl)pyridine-4-carbonitrile] reads 0.55 nM; that for `N#Cc1cc(C(F)(F)F)ncc1O[C@H]1CCC2(C1)CN(C(=O)N1CC3(COCC(=O)N3)C1)C2` [Example 214, 5-[[(6S)-2-(6-oxo-8-oxa-2,5-diazaspiro[3.5]nonane-2-carbonyl)-2-azaspiro[3.4]octan-6-yl]oxy]-2-(trifluoromethyl)pyridine-4-carbonitrile], 386 nM; that for `O=C1CCC2(CN(C(=O)N3CC4(CC(Cc5ccc(S(=O)(=O)C6CC6)cc5)C4)C3)C2)N1` [Example 215, 2-[6-[(4-cyclopropylsulfonylphe-nyl)methyl]-2-azaspiro[3.3]heptane-2-carbonyl]-2,5-diazaspiro[3.4]octan-6-one], 3.2 nM.
As for `O=C1CCC2(CN(C(=O)N3CC4(CC(Cc5cnn(C(F)(F)F)c5)C4)C3)C2)N1` [Example 216, 2-[6-[[1-(trifluoromethyl)pyrazol-4-yl]methyl]-2-azaspiro[3.3]heptane-2-carbonyl]-2,5-diazaspiro[3.4]octan-6-one], inhibition was half-maximal at 17.6 nM (IC50).
In turn, `N#Cc1cc(CC2CC3(C2)CN(C(=O)N2CC4(CCC(=O)N4)C2)C3)cc(C(F)(F)F)c1` [Example 217, 3-[[2-(6-oxo-2,5-diazaspiro[3.4]octane-2-carbonyl)-2-azaspiro[3.3]heptan-6-yl]methyl]-5-(trifluoromethyl)benzoni-trile] registered an IC50 of 0.78 nM.
`O=C1CCC2(CN(C(=O)N3CC4(CCN(Cc5ccc(S(=O)(=O)C(F)(F)F)cc5)C4)C3)C2)N1` [Example 218, 2-[7-[[4-(trifluoromethylsulfonyl)phenyl]methyl]-2,7-diazaspiro[3.4]octane-2-carbonyl]-2,5-diazaspiro[3.4]octan-6-one] showed an IC50 of 87.3 nM.
On to `N#Cc1ccc(CC2CC3(C2)CN(C(=O)N2CC4(CCC(=O)N4)C2)C3)cc1C(F)(F)F` [Example 219, 4-[[2-(6-oxo-2,5-diazaspiro[3.4]octane-2-carbonyl)-2-azaspiro[3.3]heptan-6-yl]methyl]-2-(trifluoromethyl)benzoni-trile], for which 0.43 nM corresponded to half-maximal inhibition (IC50).
On to `O=C1CCC2(CN(C(=O)N3CC4(CC(Cc5cc(C(F)(F)F)n[nH]5)C4)C3)C2)N1` [Example 220, 2-[6-[[3-(trifluoromethyl)-1H-pyrazol-5-yl]methyl]-2-azaspiro[3.3]heptane-2-carbonyl]-2,5-diazaspiro[3.4]octan-6-one], for which the IC50 came out at 4.18 nM.
`O=C1CCC2(CN(C(=O)N3CC4(CC[C@H](Cc5ccc(S(=O)(=O)C(F)(F)F)cc5)C4)C3)C2)N1` [Example 221, 2-[(6R)-6-[[4-(trifluoromethylsulfonyl)phenyl]methyl]-2-azaspiro[3.4]octane-2-carbonyl]-2,5-diazaspiro[3.4]octan-6-one] came in with an IC50 of 1.31 nM.
The result for `O=C1CCC2(CN(C(=O)N3CC4(CC[C@@H](Cc5ccc(S(=O)(=O)C(F)(F)F)cc5)C4)C3)C2)N1` [Example 222, 2-[(6S)-6-[[4-(trifluoromethylsulfonyl)phenyl]methyl]-2-azaspiro[3.4]octane-2-carbonyl]-2,5-diazaspiro[3.4]octan-6-one] reads 2.27 nM; that for `O=C1CCC2(CN(C(=O)N3CC4(CC[C@H](Cc5cccc(S(=O)(=O)C(F)(F)F)c5)C4)C3)C2)N1` [Example 223, 2-[(6R)-6-[[3-(trifluoromethylsulfonyl)phenyl]methyl]-2-azaspiro[3.4]octane-2-carbonyl]-2,5-diazaspiro[3.4]octan-6-one], 0.96 nM.
Turning to `O=C1CCC2(CN(C(=O)N3CC4(CC[C@@H](Cc5cccc(S(=O)(=O)C(F)(F)F)c5)C4)C3)C2)N1` [Example 224, 2-[(6S)-6-(3-triflylbenzyl)-2-azaspiro[3.4]octane-2-carbonyl]-2,5-diazaspiro[3.4]octan-6-one], the IC50 stood at 0.23 nM.
`O=C1CCC2(CN(C(=O)N3CC4(CC(Cn5ccc(C(F)(F)F)n5)C4)C3)C2)N1` [Example 225, 2-[6-[[3-(trifluoromethyl)pyrazol-1-yl]methyl]-2-azaspiro[3.3]heptane-2-carbonyl]-2,5-diazaspiro[3.4]octan-6-one] returned an IC50 of 17 nM.
On to `O=C1COCC2(CN(C(=O)N3CC4(CCC(Cc5cnc(C(F)(F)F)cn5)CC4)C3)C2)N1` [Example 226, 2-[7-[[5-(trifluoromethyl)pyrazin-2-yl]methyl]-2-azaspiro[3.5]nonane-2-carbonyl]-8-oxa-2,5-diazaspiro[3.5]nonan-6-one], for which the IC50 turned out to be 45.9 nM.
`O=C1COCC2(CN(C(=O)N3CC4(CC(n5cnc(C6CC6)n5)C4)C3)C2)N1` [Example 227, 2-[6-(3-cyclopropyl-1,2,4-triazol-1-yl)-2-azaspiro[3.3]heptane-2-carbonyl]-8-oxa-2,5-diazaspiro[3.5]nonan-6-one] had an IC50 of 1800 nM.
The result for `O=C1COCC2(CN(C(=O)N3CC4(CC(c5ccc(C(F)(F)F)cc5F)C4)C3)C2)N1` [Example 228] reads 18.4 nM; that for `O=C1COCC2(CN(C(=O)N3CC4(CN(Cc5ccc(S(=O)(=O)C(F)(F)F)cc5)C4)C3)C2)N1` [Example 229, 2-[6-[[4-(trifluoromethylsulfonyl)phenyl]methyl]-2,6-diazaspiro[3.3]heptane-2-carbonyl]-8-oxa-2,5-diazaspiro[3.5]nonan-6-one], 78.4 nM.
